Assay results published in patent US20240384344A1, “METHOD FOR LABELING CELLS” (RIKEN, priority 2022, published 2024).

How the values were obtained:
[1] = target: mouse E-cadherin (CDH1) (mouse) (UniProt P09803); experiment: flow cytometry, undifferentiated mouse R1 ES cells, biotinylated anti-CDH1 antibody then PE-conjugated TotalSeq streptavidin
[2] = target: mouse E-cadherin (CDH1) (mouse) (UniProt P09803); experiment: flow cytometry, differentiated R1 ES cells (only a part of them expresses CDH1), biotinylated anti-CDH1 antibody then PE-conjugated TotalSeq streptavidin
[3] = tested on: undifferentiated mouse ES cells (R1 line); experiment: Flow cytometry of labeling efficiency (PE-positive cells), USB method vs Ab method; format: cell-based; details: TotalSeq PE streptavidin detection
Experimental: Single cells containing 0.5-2×10^6 […] CELLs prepared in “3. […] After incubation on ice, 3 mL ice-cold PBS containing 3% FBS was added to the reaction, and the cells were centrifuged at 4° C., 300 g for 5 minutes. The cells were further washed twice with Cell Staining Buffer (BioLegend, Inc., 420201), and then kept on ice until barcoded oligo DNA binding in the next step. Single cells containing 0.5-2×10^6 […] CELLs prepared in “3. […] An ice-cold primary antibody solution (0.05 μg/mL biotinylated CDC324 [E-cadherin] rat monoclonal antibody [Thermo Fisher ScientificTM, 13-3249-82]) was mixed with the cell suspension solution, and the cell was incubated on ice for 30 minutes. Next, the cells were washed three times with ice-cold Cell Staining Buffer, and then kept on ice until binding of barcoded DNA. […] The cell suspension solution was filtered through 40 μm cell strainer, the same number of cells from each sample was gathered in a single tube and used for cell trapping and cDNA synthesis using a BD RhapsodyTM apparatus. First, by the same method as in the above 1-3, SINGLE CELL suspension solutions of undifferentiated ES cells and differentiated ES cells were prepared. […] The stained cells were analyzed by flow cytometry using EC800 Cell Analyzer (Sony Corporation), Cyto FLEX flow cytometer (Beckman Coulter, Inc.), or […] flow cytometer (BD Biosciences). […]

[4] = tested on: differentiated ES cells (R1, embryoid body formation); experiment: as above; format: cell-based, mouse; details: TotalSeq PE streptavidin detection
Experimental: After removing the feeder cells, 1×10^4 ES cells were seeded in 100 μL differentiation medium (GMEM supplemented with 15% FBS, 0.11 mg/mL sodium pyruvate, 0.1 mM 2-mercaptoethanol, 1×non-essential amino acid, and 1×GlutaMAX supplement) in a U-bottom 96-well low cell attachment plate (Nunclon Sphera 96-Well U-Shaped-Bottom Microplate; Thermo Fisher ScientificTM, 174925), and cultured for 24 hours. Spheroids made in the plate were transferred to a 90 mm, low cell attachment culture dish (Nunclon Sphera 90 mm dish, 174945), and cultured for further 4 days to form embryoid bodies (EBs). The EBs were washed three times with PBS, dissociated into […] CELLs (group of single cells) using 0.25% trypsin, the cells were seeded on a gelatin-treated culture dish, and cultured for 7 days to induce further differentiation. Single cells containing 0.5-2×10^6 […] CELLs prepared in “3. […] After incubation on ice, 3 mL ice-cold PBS containing 3% FBS was added to the reaction, and the cells were centrifuged at 4° C., 300 g for 5 minutes. The cells were further washed twice with Cell Staining Buffer (BioLegend, Inc., 420201), and then kept on ice until barcoded oligo DNA binding in the next step. […] The stained cells were analyzed by flow cytometry using EC800 Cell Analyzer (Sony Corporation), Cyto FLEX flow cytometer (Beckman Coulter, Inc.), or […] flow cytometer (BD Biosciences). […]

[5] = tested on: undifferentiated ES cells; experiment: Cell viability test (colony formation); format: cell-based, mouse
Experimental: Undifferentiated ES cells were treated with 100 μg/mL S-NHS-biotin (10-fold the concentration used for multiplex scRNA-seq) and TotalSeq® PE streptavidin, and 3×10^3 cells were seeded on a 3.5 cm, gelatin-treated culture dish. Concurrently, the same number of untreated cells were seeded. After 5-day culture, the cells were stained with hematoxylin, and the colony formation ratios of untreated control and treated sample were examined.
A series of experimental operations by the USB method has a possibility to compromise cell states and growth. To examine this possibility, ES cells were treated by the USB method, and seeded on a culture dish to measure colony formation ability (FIG. 7). As a result, even though cells were treated with S-NHS-biotin at a concentration 10-fold the concentration used in the USB method (0.1 mg/mL), the difference of colony formation rates between the control group without labeling and the USB group were not observed. Consequently, the USB method was concluded to not change the cell viability.

[6] = Storage stability of S-NHS-biotin stock solution; format: physicochemical; details: stock solution at −80° C.
Experimental: A S-NHS-biotin stock solution was prepared by dissolving EZ-Link sulfo-NHS-biotin (Thermo Fisher Scientific™, 21217) in PBS at a concentration of 10 mg/mL, and dispensed and stored at […] until use.

[7] = tested on: mouse growth plate chondrocytes; experiment: Flow cytometry of labeled growth plate chondrocytes; format: cell-based; details: mouse growth plate chondrocytes (FIG. 11)
Experimental: (§1) Specifically, healthy F344 rat lungs were cut into 0.5 mm^2 with razor blade, digested in a Liberase solution [RPMI-1640 (Natalai Tesque)] added with 10% FBS, 10 mM HEPES pH 7.2-7.4, 0.25 mg/ml Liberase™ (F. Hoffmann-La Roche Ltd.), and 2000 U/mL DNase I (Merck KGaA) for 60 minutes at 37° C. to prepare a SINGLE CELL suspension solution. Dead cells were removed by Percoll. Alternatively, growth plate cartilage from proximal tibia was collected from 3-week-old mice and cut finely into 1 to 2 mm pieces. Next, the cut pieces were dispersed into SINGLE CELLs (group of single cells) with Liberse™ (F. Hoffmann-La Roche Ltd.) solution for 120 to 210 minutes while continuously agitating.
(§2) Reagents for cell staining were biotinylated CDC324 (E-cadherin) rat monoclonal antibody (Thermo Fisher Scientific™, 13-3249-82), TotalSeq® PE streptavidin (BioLegend, Inc., 405251), PerCP-Cy5.5 anti-rat CD45 (Bio-Rad Laboratories, Inc., clone OX-1), PE anti-rat CD31 (Bio-Rad Laboratories, Inc., Clone TLD-3A12), streptavidin-APC (BioLegend, Inc., 405207), APC rat anti-mouse CD45 (BD Biosciences, 559864), and PE anti-mouse H-2 antibody (BioLegend, Inc., 125505).
(§3) The stained cells were analyzed by flow cytometry using EC800 Cell Analyzer (Sony Corporation), Cyto FLEX flow cytometer (Beckman Coulter, Inc.), or FACS Arria II flow cytometer (BD Biosciences).

[8] = tested on: rat lung cells (CD31 positive, CD45 positive, double negative); experiment: Flow cytometry of USB labeling of fractionated lung cells (APC-labeled streptavidin); format: cell-based; details: CD45 positive and double negative fractions (FIG. 12)
Experimental: as §1, §2, §3

Sequence of UniProt P09803 (P09803 157-884): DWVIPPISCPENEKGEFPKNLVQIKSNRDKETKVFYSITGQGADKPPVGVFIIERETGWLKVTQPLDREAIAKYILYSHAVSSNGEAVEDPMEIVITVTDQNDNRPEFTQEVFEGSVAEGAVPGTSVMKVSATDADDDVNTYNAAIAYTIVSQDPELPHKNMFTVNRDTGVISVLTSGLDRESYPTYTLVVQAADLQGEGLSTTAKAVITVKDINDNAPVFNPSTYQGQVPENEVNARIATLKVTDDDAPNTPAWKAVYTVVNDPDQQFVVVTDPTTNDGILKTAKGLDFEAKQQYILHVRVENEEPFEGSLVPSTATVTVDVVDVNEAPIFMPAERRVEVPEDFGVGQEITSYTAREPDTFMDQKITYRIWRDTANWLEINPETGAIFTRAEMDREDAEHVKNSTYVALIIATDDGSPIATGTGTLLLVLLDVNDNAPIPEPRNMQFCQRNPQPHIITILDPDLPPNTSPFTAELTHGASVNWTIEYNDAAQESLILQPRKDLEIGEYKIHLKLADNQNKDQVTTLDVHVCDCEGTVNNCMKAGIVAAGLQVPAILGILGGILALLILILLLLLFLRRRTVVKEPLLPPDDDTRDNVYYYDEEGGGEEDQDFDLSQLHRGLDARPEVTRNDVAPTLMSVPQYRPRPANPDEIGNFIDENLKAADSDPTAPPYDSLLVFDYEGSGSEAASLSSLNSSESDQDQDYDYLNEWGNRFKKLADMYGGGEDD

Substance | percent PE-positive cells [1] [%] | percent PE-positive cells [2] [%] | percentage of PE-positive cells [3] [%] | percentage of PE-positive cells [4] [%] | difference of colony formation rates between the control group without labeling and the USB group ([5]; S-NHS-biotin 0.1 mg/mL (10-fold the concentration used in the USB method), 5-day culture) | effect on viability of undifferentiated ES cells ([5]; S-NHS-biotin treated vs control untreated cells (FIG. 7)) | time stock solution is stable [6] | labeling/staining of chondrocytes [7] | labeling of fractionated lung cells [8]
biotinylated CDC324 [E-cadherin] rat monoclonal antibody [Thermo Fisher Scientific, 13-3249-82] | 87.8 | 9.9 |  |  |  |  |  |  | 
sulfo-N-hydroxysuccinimide-biotin [S-NHS-biotin] |  |  | 99.6 | 96.4 | not observed | does not affect the viability | more than 1 year | efficiently labeled | All fractionated cells were found to have been labeled
